Experiments:
[1] = Drug-like properties: bioavailability; conditions: in vivo delivery
Hs578T cells = assay: Tumor spheroid formation, Hs578T; type: cell-based, human; conditions: for effect on formation of spheroids, Hs578T: added to culture medium, 96 hr, p≤0.001
Method: Tumor self-renewing and anchorage-independent spheroids were obtained by culturing breast cancer cells MCF7, Hs587T and MDA231; melanoma cells SBcl2 and FM6; human breast cancer stem cells and pancreatic cancer stem cells in stem cell-selective conditions according to the manufacturer’s instructions (StemCell Technologies, Tukwila, WA). Briefly, cancer and cancer stem cells were propagated in 6-well ultra-low adherent plates (Corning) in Complete MammoCult Medium (Human) by adding 50 mL of MammoCult Proliferation Supplements to 450 mL of MammoCult Basal Medium (StemCell Technologies). The following were added to obtain Complete MammoCult Medium: 4 ug/mL Heparin (StemCell Technologies), 0.48 μg/mL hydrocortisone (StemCell Technologies), 200 U penicillin/ml; and 200 μg streptomycin/ml (Invitrogen).
Figure 4 Effects of PKCδ inhibitors on human tumor cell spheroid formation. (A) Hs578T and MCF7 were plated under adherent or non-adherent conditions. Tumor spheroids and adherent cells were collected at 96 hr, stained for CD24 and CD44, and analyzed by flow cytometry. (B) Hs578T, MCF7, breast cancer stem cells (BCSC) and pancreatic cancer stem cells (PCSC) were plated in tumor spheroid media, in the presence of rottlerin, BJE6-106, or DMSO (Control). Tumor spheroids were enumerated at 96 hr, and normalized to the number of spheroids in the control cultures (assigned an arbitrary value of 100%). p values for comparison between vehicle and rottlerin or BJE6-106 effects were significant (p≤0.001). Photographs are of representative areas of the culture plates. (C) MCF7 cells were exposed BJE6-106 or to rottlerin at the indicated concentrations. The corresponding equivalent volume of solvent (DMSO) was used as a vehicle control (Vehicle). After 24, 48 and 72 hr of exposure, cell mass was evaluated by MTT assay. Control values were normalized to 100%. p values for comparison between vehicle and rottlerin effects on cell number at 24 hr reached significance at 5 μM, and for BJE6-106 at 0.5 μM (p ≤ 0.02), and were significant for all concentrations tested at 48 and 72 hr time points. (D) Hs578T cells were exposed to vehicle or BJE6-106 (1 μM) for 6, 12, 24, 48 or 96 hr. Viable cells were enumerated and re-plated in media without BJE6-206, and spheroid numbers were quantitated 96 hr later. p values for comparison between vehicle and BJE6-106 effects on spheroid number were significant after 6 hr of exposure (p≤0.02), and remained significant at all time points thereafter. Error bars represent SEM.

MCF 10A cells = assay: Cell proliferation (MTT) of non-transformed breast epithelial cells; type: cell-based, human; conditions: for concentration at which effect on MCF 10A cell number reached significance: 48 hr, p < 0.05; for IC50: Homo sapiens, MCF-10A, 72 hr, read-out: IC50 for the parental MCF 10A cells
Method: Cell proliferation was assessed using an MTT [3-(4,5-dimethylthiazol-2-yl)-2,5-diphenyltetrazolium bromide] assay (Roche, Mannheim, Germany). The number of viable cells growing in a single well on a 96-well microtiter plate was estimated by adding 10 μl of MTT solution (5 mg/ml in phosphate-buffered saline [PBS]). After 4 h of incubation at 37°C, the stain was diluted with 100 μl of dimethyl sulfoxide. The optical densities were quantified at a test wavelength of 570 nm and a reference wavelength of 690 nm on a multiwell spectrophotometer. In some assays, MTS was used as substrate (Promega, Madison, WI), and the absorbance of the product was monitored at 490 nm. Cell enumeration was carried out using a hemocytometer, and viable cells identified by trypan blue exclusion.
Figure 5 Effects of PKCδ inhibitors on growth and spheroid formation in non-transformed and transformed human breast epithelial cells. MCF 10A cells and cells from the derived tumorigenic line MCF 10C (also called M3), were grown to 80% confluence in 96-well plates and then exposed to rottlerin at concentrations ranging from 1 to 20 μM (A) or to BJE6-106 at concentrations ranging from 0.1 to 20 μM (B). The corresponding equivalent volume of solvent (DMSO) was used as a vehicle control (Vehicle). After 24, 48 and 72 hr of exposure, cell mass was evaluated by MTT assay. Control (vehicle) values were normalized to 100%. Error bars represent SEM. p values for comparison between vehicle and PKCδ inhibitors on MCF 10A cell number only reached significance (p < 0.05) at 48 hr at 20 μM for rottlerin, and at 1 μM for BJE6-106. In contrast, significant effects of the inhibitors on the MCF 10C cells were observed as early as 24 hr for rottlerin (at 5 μM) and for BJE6-106 (at 0.1 μM). (C) MCF 10A and MCF 10C cells were plated at 10,000 cells per well in tumor spheroid media, and spheroid formation was assessed at days 10 and 21. Representative photographs are shown. (D) MCF 10C cells were plated at 10,000 cells per well in tumor spheroid media, in the presence of rottlerin (5 μM), or BJE6-106 (1 μM or 5 μM), or DMSO vehicle (Control). Tumor spheroids were enumerated at 10 days. Representative photographs are shown. (E) Spheroid numbers were normalized to the number of spheroids in the control cultures (assigned an arbitrary value of 100%) and plotted. Error bars represent SEM. p values for comparison between vehicle and rottlerin or BJE6-106 effects on spheroid number were significant (p < 0.001).

MiaPaCa2 = assay: Tumor spheroid growth, MiaPaCa2 pancreatic cancer; type: cell-based, human; conditions: p < 0.001

| Structure (SMILES) | bioavailability [1] | exposure time for near maximum inhibition of spheroid formation (washout) (Hs578T cells; BJE6-106 at 1 μM, Hs578T) [h] | exposure time that significantly repressed spheroid formation (washout) (Hs578T cells; BJE6-106 at 1 μM, Hs578T, spheroids counted 96 hr after re-plating) [h] | effect on formation of spheroids, Hs578T (Hs578T cells) | concentration at which effect on MCF 10A cell number reached significance (MCF 10A cells) [µM] | IC50 (MCF 10A cells) [µM] | inhibition of tumor spheroid growth, MiaPaCa2 (MiaPaCa2; BJE6-106 at 0.5-1.0 μM) [%] | inhibition at 10 µM (MiaPaCa2; Homo sapiens, MIA PaCa-2, rottlerin at 10 μM) [%] |
| --- | --- | --- | --- | --- | --- | --- | --- | --- |
| CC1(C)C=Cc2cc(CCn3c4ccccc4c4ccccc43)cc(C=O)c2O1 [BJE6-106, 6-(2-(9H-carbazol-9-yl)ethyl)-2,2-dimethyl-2H-chromene-8-carbaldehyde] | poorly bioavailable | ≤ 24 | 6 | very efficiently inhibited | 1 | > 20 | > 97 |  |
| CC(=O)c1c(O)c(C)c(O)c(Cc2c(O)c3c(c(C(=O)/C=C/c4ccccc4)c2O)OC(C)(C)C=C3)c1O [rottlerin, Rottlerin, reference compound] | readily bioavailable |  |  | very efficiently inhibited | 20 | > 20 |  | > 97 |

From PMC3927586, “Protein kinase C-delta inactivation inhibits the proliferation and survival of cancer stem cells in culture and in vivo” (BMC Cancer, 2014)
